Values of other authors, collected in patent US20110003837A1, “MODIFIED RELEASE FORMULATIONS OF HMG COA REDUCTASE INHIBITORS” (LUPIN LIMITED, priority 2008, published 2011).
Read-outs that look alike come from different tables or passages of the source.

Assays:
[1] = 40 mg daily, clinical trials
HMG-CoA reductase = molecular target: T1, HMG-CoA reductase (Homo sapiens, UniProt P04035)
T1 sequence (P04035 1-888): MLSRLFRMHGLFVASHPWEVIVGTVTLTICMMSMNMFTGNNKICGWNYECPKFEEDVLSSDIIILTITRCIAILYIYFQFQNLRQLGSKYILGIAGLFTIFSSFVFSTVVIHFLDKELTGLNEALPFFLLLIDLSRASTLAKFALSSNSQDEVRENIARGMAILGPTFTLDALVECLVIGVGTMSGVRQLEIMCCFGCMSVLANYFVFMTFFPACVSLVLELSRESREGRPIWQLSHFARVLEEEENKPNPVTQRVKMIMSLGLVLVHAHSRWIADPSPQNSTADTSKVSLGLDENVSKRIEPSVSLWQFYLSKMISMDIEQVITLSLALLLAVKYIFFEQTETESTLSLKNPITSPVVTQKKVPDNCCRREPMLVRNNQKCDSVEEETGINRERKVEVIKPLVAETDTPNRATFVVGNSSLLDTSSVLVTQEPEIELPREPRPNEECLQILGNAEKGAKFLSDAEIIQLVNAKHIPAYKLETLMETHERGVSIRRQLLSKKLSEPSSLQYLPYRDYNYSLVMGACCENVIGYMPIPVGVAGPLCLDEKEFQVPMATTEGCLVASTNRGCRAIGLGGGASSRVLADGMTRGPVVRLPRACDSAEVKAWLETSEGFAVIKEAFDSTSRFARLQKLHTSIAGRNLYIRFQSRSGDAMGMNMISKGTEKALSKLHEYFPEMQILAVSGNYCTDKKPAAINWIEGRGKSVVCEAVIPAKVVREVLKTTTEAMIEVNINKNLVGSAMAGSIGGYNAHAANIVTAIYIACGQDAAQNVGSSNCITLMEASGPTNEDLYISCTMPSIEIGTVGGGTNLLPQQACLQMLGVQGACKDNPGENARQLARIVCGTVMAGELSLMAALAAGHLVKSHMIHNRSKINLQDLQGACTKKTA

[2] = in vivo
[3] = U.S. Pharmacopeia (2002)
[4] = in words

Share of the inhibitory activity of rosuvastatin due to the parent compound (HMG-CoA reductase): 90% | Absorbed dose extracted by the liver [2]: up to 90% | Clearance through biliary excretion [2]: 90% | Elimination half-life (t½) [2]: 20 h | Excreted in the urine [2]: 10% | Patients with drug levels greater than 50 ng/ml (40 mg): 2% | Patients with drug levels greater than 50 ng/ml (80 mg): 33% | Solubility class [3]: sparingly soluble | Stability in acidic environments like that found in the stomach [4]: stable in acidic environments
SMILES: CC(C)c1nc(N(C)S(C)(=O)=O)nc(-c2ccc(F)cc2)c1/C=C/[C@@H](O)C[C@@H](O)CC(=O)O (single isomer, unassigned) [rosuvastatin]
LDL-C reduction [1]: up to 63% | Plasma level at which muscle and or renal toxicity developed (plasma): more than 50 ng/ml
